Reference: patent US5932580A, “PDGF receptor kinase inhibitory compounds their preparation and compositions” (priority 1997, dated 1999)

Key:
Type in all cases: cell-based
PDGF β-receptor = target: T1, PDGF β-receptor (Sus scrofa, UniProt F1RL75); assay: PDGF induced PDGFR autophosphorylation in intact SMC cells; details: porcine arterial SMC; for inhibition of PDGF-BB induced PDGF β-receptor tyrosine-phosphorylation: tyrphostin 10 μM, 60 min preincubation, PDGF-BB 100 ng/ml
T1 construct: PDGF-BB stimulated; immunoprecipitated with PDGF beta-receptor specific antiserum R3
Protocol: Effect of tyrphostins on PDGF induced PDGFR autophosphorylation in intact SMC cells: Subconfluent porcine arterial smooth muscle cells, cultivated in Dulbecco's modified Eagle's medium (DMEM) supplemented with 15% fetal calf serum (FCS), were synchronized for 20 hours in a medium containing 2% FCS. […] After stimulation, the cells were solubilized in Nonidet P-40 (1%) containing lysis buffer.
The analysis of PDGF p-receptor phosphorylation was performed as follows. Cell lysates were subjected to immunoprecipitation using the PDGF β-receptor specific antiserum R3 [5]. The percipitates were subjected to polyacrylamide (7.5%) gel electrophoresis in presence of sodium deducyl sulfate (SDS-PAGE) and were thereafter blotted onto a nitrocellulose membrane (Hybond C-EXTRA, Amersham). Phosphorylated proteins were detected by immunoblotting using the horseradish-peroxidase conjugated phosphotyrosine antibody RC20H (Transduction Laboratories), followed by chemoluminescence-based detection (ECL, Amersham) and autoradiography.
Detection of receptor proteins was performed as follows. Cell lysates were subjected to immunoprecipitation using the PDGF β-receptor specific antiserum R3 [5], as described above, and the percipitates washed three times and thereafter subjected to SDS-PAGE (7.5%) and blotting onto a nitrocellulose membrane (Hybond C-EXTRA, Amersham). Receptor proteins were detected by immunoblotting using the horseradish-peroxidase conjugated donkey anti-rabbit antibody (Amersham), followed by chemoluminescence-based detection (ECL, Amersham) and autoradiography.

[1] = test system: human internal mammary artery smooth muscle cells (IMA SMC); assay: Inhibition of cell proliferation and recovery, human IMA SMC
From the text: Smooth muscle cells (SMC) were obtained under aseptic conditions from porcine abdominal aortas, and human internal mammary arteries (IMA). Specimens from the operating room were transferred on ice to the tissue culture room. Each artery was cut open and the endothelial surface mechanically scraped. The vessels were then cut into 2 mm^2 fragments which were placed in culture dishes with Dulbecco's modified Eagle's medium (DMEM) supplemented with 15% (v/v) fetal calf serum (FCS), 100 u/ml penicillin, 100 μg/ml streptomycin, and […] L-glutamine. The tissue fragments were then placed in an incubator at 37° C. under 9% CO2 atmosphere until SMC outgrowth was detected (typically within 3-7 days). […] For experiments testing the effect of tyrphostins on growth inhibition and recovery (see below), SMC from passages 1-3 were replated in 15 mm wells pretreated with 3 μg/cm^2 fibronectin (Biological Industries, Kibbutz Beit Haemek, Israel) at 15,000 cells/well.
Inhibition of cell proliferation and recovery: Monolayer cell growth inhibition and recovery experiments were repeated 3 or 4 times. Each experiment was performed in triplicate. Approximately 15,000 cells (SMC or EC) in 1 ml of culture medium supplemented with 15% FCS were seeded on day 0 in 15 mm-wells precoated with fibronectin. Cultures were treated with a tyrphostin (10 μM) dissolved in 0.1% DMSO on days 1 and 3. On day 6, cultures were washed and the cells allowed to recover. Typically cells were counted on days 3 and 5 for inhibition, and on days 7, 10 and 15 for recovery, other schedules were also employed as reported below. The medium supplemented with serum (M-199 with ECGS for EC, and DMEM for SMC) was changed every other day throughout the experiment.
FIG. 9 presents the maximal inhibitory and recovery effects on human IMA SMC growth inflicted by 10 or 25 μM of AG1851 and AG1295. Cells were grown in the presence of the specified tyrphostins and were counted after seven days in culture. On day 7 the cultures were washed and the cells allowed to recover. Seven days later they were counted for recovery. The bar graph show the maximal inhibition and the recovery in each experiment and for controls.

[2] = test system: porcine endothelial cells (EC); assay: Inhibition of cell proliferation and recovery, porcine EC; details: Sus scrofa, Endothelial cell; FIG. 8 experiment; 10 μM; read-out: maximal inhibitory effect on porcine EC proliferation
From the text: Endothelial cells (EC) were isolated from porcine carotid arteries. Using aseptic procedure, both common carotid arteries were isolated, and the distal end of each artery was cannulated through an arteriotomy and ligated. The arteries were then perfused with phosphate buffered saline (PBS) and the proximal end ligated isolating a 5-7 cm long blood-free portion of the artery. The isolated portion of each artery was filled with PBS containing calcium and magnesium and 0.1% collagenase (Boehringer Manneheim, Germany). The segments were excised and incubated for 10 min at 37° C. in sterile bottles containing PBS. […] Cells were seeded on fibronectin-coated dishes at a seeding density of 15,000 cells/well and incubated at 37° C. in 9% CO2. ECGS (25 μg/ml) was added every other day until confluence was observed, typically within 6-8 days.
Inhibition of cell proliferation and recovery: Monolayer cell growth inhibition and recovery experiments were repeated 3 or 4 times. Each experiment was performed in triplicate. […] Cultures were treated with a tyrphostin (10 μM) dissolved in 0.1% DMSO on days 1 and 3. On day 6, cultures were washed and the cells allowed to recover. Typically cells were counted on days 3 and 5 for inhibition, and on days 7, 10 and 15 for recovery, other schedules were also employed as reported below.

T1 sequence (F1RL75 109-1181): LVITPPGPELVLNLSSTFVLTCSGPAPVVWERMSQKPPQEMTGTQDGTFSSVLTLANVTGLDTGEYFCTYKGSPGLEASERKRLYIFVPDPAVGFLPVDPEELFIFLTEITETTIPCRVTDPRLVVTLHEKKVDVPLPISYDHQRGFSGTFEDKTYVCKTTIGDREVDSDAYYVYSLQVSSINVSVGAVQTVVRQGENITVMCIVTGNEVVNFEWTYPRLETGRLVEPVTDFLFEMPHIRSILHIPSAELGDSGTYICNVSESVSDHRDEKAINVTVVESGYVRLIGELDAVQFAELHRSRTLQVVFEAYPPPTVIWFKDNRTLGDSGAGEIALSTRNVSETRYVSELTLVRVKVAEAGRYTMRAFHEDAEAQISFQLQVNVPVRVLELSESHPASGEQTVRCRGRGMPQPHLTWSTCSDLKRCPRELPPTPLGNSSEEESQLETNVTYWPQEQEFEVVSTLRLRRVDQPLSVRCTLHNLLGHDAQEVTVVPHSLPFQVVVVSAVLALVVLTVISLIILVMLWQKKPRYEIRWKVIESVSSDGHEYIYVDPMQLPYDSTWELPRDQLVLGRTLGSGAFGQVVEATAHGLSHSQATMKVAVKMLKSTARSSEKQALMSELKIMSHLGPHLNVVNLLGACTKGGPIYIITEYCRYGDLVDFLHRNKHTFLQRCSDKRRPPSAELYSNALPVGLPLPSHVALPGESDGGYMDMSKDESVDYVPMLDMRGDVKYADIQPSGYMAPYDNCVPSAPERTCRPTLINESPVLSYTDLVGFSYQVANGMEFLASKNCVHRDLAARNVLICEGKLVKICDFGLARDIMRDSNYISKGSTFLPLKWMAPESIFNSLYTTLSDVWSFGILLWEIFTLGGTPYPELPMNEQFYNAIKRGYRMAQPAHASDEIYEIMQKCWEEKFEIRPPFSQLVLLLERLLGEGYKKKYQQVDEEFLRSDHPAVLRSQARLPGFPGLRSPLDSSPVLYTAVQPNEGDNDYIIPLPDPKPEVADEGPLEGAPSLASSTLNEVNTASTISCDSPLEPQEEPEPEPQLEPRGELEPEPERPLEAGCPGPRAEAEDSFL

## Cc1nc2cc3nc(-c4ccccc4)cnc3cc2n1C [AG1851]
PDGF β-receptor
  level of PDGF β-receptor protein present in the cells: without affecting the level
  inhibition of PDGF-BB induced PDGF β-receptor tyrosine-phosphorylation: completely inhibited
[1]; 25 μM
  reversibility of the effect on IMA SMC upon removal of the tyrphostin: completely reversible
[1]; Homo sapiens, 120 h, read-out: mean reduction / inhibition of IMA SMC proliferation compared to untreated or DMSO-treated cells
  inhibition at 25 µM: 54%

## Cc1nc2cc3nc(-c4cccs4)cnc3cc2n1C [AG1992]
PDGF β-receptor
  level of PDGF β-receptor protein present in the cells: without affecting the level
  inhibition of PDGF-BB induced PDGF β-receptor tyrosine-phosphorylation: completely inhibited
[2]
  inhibition at 10 µM: 52%
